# Earlier results, collected in patent US4738979A, “α2 -blocking derivatives of imidazole” (G. D. Searle & Co., priority 1985, dated 1988).
# Test system: α2 -adrenergic receptors
# Settings: cited from earlier work
Structure (SMILES),selectivity (in words),side-effects (in words)
COC(=O)[C@H]1[C@H]2C[C@H]3c4[nH]c5ccccc5c4CCN3C[C@H]2CC[C@@H]1O [rauwolscine],lack selectivity,numerous side-effects
COC(=O)[C@@H]1[C@H]2C[C@H]3c4[nH]c5ccccc5c4CCN3C[C@@H]2CC[C@@H]1O [yohimbine],lack selectivity,numerous side-effects
